# Results: patent US11970474B2, “Substituted benzodiazoles and use thereof in therapy” (THOMAS HELLEDAYS STIFTELSE FÖR MEDICINSK FORSKNING, priority 2018, dated 2024)
# Biological target: OGG1 (Homo sapiens (Human), UniProt O15527)
# Assay: In vitro OGG1 activity assay
# Assay type: biochemical
# Settings: 800 pM OGG1 enzyme, 2 nM human APEX1, 10 nM 8-oxoA:C substrate
# Method: Method 1: In Vitro OGG1 Activity Assay OGG1 activity is assayed by measuring the increase in fluorescence from a duplex oligonucleotide containing an OGG1 substrate and a fluorophore in close proximity that are quenched by a quencher on the complementary strand. […] OGG1 activity releases the substrate base from DNA by cleaving the N-glycosidic bond between base and deoxyribose. The resulting apurinic site is cleaved by an excessive amount APEX1 activity which cause the duplex to melt, which in turn cause the fluorophore to become unquenched. Compounds to be tested are dissolved in DMSO and nano-dispensed directly into black 384-well plates, followed by transfer of enzyme and substrate solutions. […] The fluorescent signal is recorded in a plate reader equipped with suitable filters to register fluorescein fluorescence.
# OGG1, sequence (O15527 whole entry): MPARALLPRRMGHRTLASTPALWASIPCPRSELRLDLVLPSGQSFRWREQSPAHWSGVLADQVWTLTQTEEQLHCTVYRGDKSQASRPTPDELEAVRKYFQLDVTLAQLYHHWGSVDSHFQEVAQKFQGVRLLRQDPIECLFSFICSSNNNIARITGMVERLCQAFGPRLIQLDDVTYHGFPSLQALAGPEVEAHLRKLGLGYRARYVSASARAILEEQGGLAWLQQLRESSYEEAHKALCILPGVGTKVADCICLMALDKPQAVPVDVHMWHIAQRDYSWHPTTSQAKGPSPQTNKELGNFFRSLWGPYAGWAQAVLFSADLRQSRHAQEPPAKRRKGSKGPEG
row,IC50,SMILES
1,4940 nM,"COc1cc(NC(=O)[C@H]2CC[C@@H](n3c(=O)[nH]c4c(Br)cccc43)CC2)ccc1C#N [Example 159, (Cis)-4-(4-bromo-2-oxo-2,3-dihydro-1H-1,3-benzodiazol-1-yl)-N-(4-cyano-3-methoxyphenyl)cyclohexane-1-carboxamide]"
2,30.9 nM,"COc1cc(NC(=O)[C@H]2CC[C@@H](n3c(=O)[nH]c4c(NC(=O)CN)cccc43)CC2)ccc1C [Example 255, Cis-4-[4-(2-aminoacetamido)-2-oxo-2,3-dihydro-1H-1,3-benzodiazol-1-yl]-N-(3-methoxy-4-methylphenyl)cyclohexane-1-carboxamide]"
3,1720 nM,"COc1cc(NC(=O)N2CCC(n3c(=O)[nH]c4c(-c5cncc(N)c5)cccc43)CC2)ccc1C [Example 97, 4-[4-(5-Aminopyridin-3-yl)-2-oxo-2,3-dihydro-1H-1,3-benzodiazol-1-yl]-N-(3-methoxy-4-methylphenyl)piperidine-1-carboxamide]"
4,2420 nM,"COc1ccc(NC(=O)N2CCC(n3c(=O)[nH]c4cc(F)ccc43)CC2)cc1Cl [Example 173, N-(3-Chloro-4-methoxyphenyl)-4-(5-fluoro-2-oxo-2,3-dihydro-1H-1,3-benzodiazol-1-yl)piperidine-1-carboxamide]"
5,1550 nM,"COc1cccc2c1[nH]c(=O)n2C1CCN(C(=O)Nc2ccc(Cl)cc2)CC1 [Example 8, N-(4-chlorophenyl)-4-(4-methoxy-2-oxo-2,3-dihydro-1H-1,3-benzodiazol-1-yl)piperidine-1-carboxamide]"
6,2260 nM,"COc1ccc(NC(=O)N2CCC(n3c(=O)[nH]c4c(-c5cnc6[nH]ncc6c5)cccc43)CC2)cc1Cl [Example 101, N-(3-chloro-4-methoxyphenyl)-4-(2-oxo-4-{1H-pyrazolo[3,4-b]pyridin-5-yl}-2,3-dihydro-1H-1,3-benzodiazol-1-yl)piperidine-1-carboxamide]"
7,4630 nM,"O=c1[nH]c2c(Br)cccc2n1[C@H]1CC[C@@H](C(=O)Nc2cncc(Cl)c2)CC1 [Example 188, Cis-4-(4-bromo-2-oxo-2,3-dihydro-1H-1,3-benzodiazol-1-yl)-N-(5-chloropyridin-3-yl)cyclohexane-1-carboxamide]"
8,8050 nM,"O=c1[nH]c2c(Br)cccc2n1[C@H]1CC[C@@H](C(=O)Nc2cccc(CO)c2)CC1 [Example 231, Cis-4-(4-bromo-2-oxo-2,3-dihydro-1H-1,3-benzodiazol-1-yl)-N-[3-(hydroxymethyl)phenyl]cyclohexane-1-carboxamide]"
9,865 nM,"O=c1[nH]c2c(Br)cccc2n1[C@H]1CC[C@@H](C(=O)Nc2ccc(C(F)(F)F)cc2)CC1 [Example 133, (Cis)-4-(4-bromo-2-oxo-2,3-dihydro-1H-1,3-benzodiazol-1-yl)-N-[4-(trifluoromethyl)phenyl]cyclohexane-1-carboxamide]"
10,3200 nM,"CC1CN(C(=O)Nc2ccc(Cl)c(Cl)c2)CCC1n1c(=O)[nH]c2c(Br)cccc21 (stereo not shown) [Example 113, 4-(4-Bromo-2-oxo-2,3-dihydro-1H-benzo[d]imidazol-1-yl)-N-(3,4-dichlorophenyl)-3-methylpiperidine-1-carboxamide]"
11,983 nM,"Cc1ccc(NC(=O)[C@H]2CC[C@@H](n3c(=O)[nH]c4c(Br)cccc43)CC2)cc1C(F)(F)F [Example 144, (Cis)-4-(4-bromo-2-oxo-2,3-dihydro-1H-1,3-benzodiazol-1-yl)-N-[4-methyl-3-(trifluoromethyl)phenyl]cyclohexane-1-carboxamide]"
12,1450 nM,"COc1ncc(NC(=O)[C@H]2CC[C@@H](n3c(=O)[nH]c4ncccc43)CC2)cc1C [Example 235, Cis-N-(6-methoxy-5-methylpyridin-3-yl)-4-{2-oxo-1H,2H,3H-imidazo[4,5-b]pyridin-1-yl}cyclohexane-1-carboxamide]"
13,1080 nM,"Cc1cccc2c1[nH]c(=O)n2C1CCN(C(=O)Nc2ccc(Cl)cc2)CC1 [Example 7, N-(4-chlorophenyl)-4-(4-methyl-2-oxo-2,3-dihydro-1H-1,3-benzodiazol-1-yl)piperidine-1-carboxamide]"
14,8630 nM,"Cc1cc(NC(=O)[C@H]2CC[C@@H](n3c(=O)[nH]c4ccc(F)cc43)CC2)ccc1O [Example 220, Cis-4-(6-fluoro-2-oxo-2,3-dihydro-1H-1,3-benzodiazol-1-yl)-N-(4-hydroxy-3-methylphenyl)cyclohexane-1-carboxamide]"
15,1080 nM,"COc1ccc(NC(=O)N2CCC(n3c(=O)[nH]c4c(SC)cccc43)CC2)cc1Cl [Example 176, N-(3-Chloro-4-methoxyphenyl)-4-[4-(methylsulfanyl)-2-oxo-2,3-dihydro-1H-1,3-benzodiazol-1-yl]piperidine-1-carboxamide]"
16,74.5 nM,"COc1ccc(NC(=O)[C@H]2CC[C@@H](n3c(=O)[nH]c4c(OC)cccc43)CC2)cc1 [Example 205, Cis-4-(4-methoxy-2-oxo-2,3-dihydro-1H-1,3-benzodiazol-1-yl)-N-(4-methoxyphenyl)cyclohexane-1-carboxamide]"
17,152 nM,"N#Cc1cc(NC(=O)[C@H]2CC[C@@H](n3c(=O)[nH]c4c(Br)cccc43)CC2)ccc1Cl [Example 157, (Cis)-4-(4-bromo-2-oxo-2,3-dihydro-1H-1,3-benzodiazol-1-yl)-N-(4-chloro-3-cyanophenyl)cyclohexane-1-carboxamide]"
18,2060 nM,"Nc1cccc(-c2cccc3c2[nH]c(=O)n3C2CCN(C(=O)Nc3ccc(Cl)c(Cl)c3)CC2)c1 [Example 29, 4-[4-(3-Aminophenyl)-2-oxo-2,3-dihydro-1H-1,3-benzodiazol-1-yl]-N-(3,4-dichlorophenyl)piperidine-1-carboxamide]"
19,3560 nM,"Nc1cccc(NC(=O)[C@H]2CC[C@@H](n3c(=O)[nH]c4c(Br)cccc43)CC2)c1 [Example 195, Cis-N-(3-aminophenyl)-4-(4-bromo-2-oxo-2,3-dihydro-1H-1,3-benzodiazol-1-yl)cyclohexane-1-carboxamide]"
20,1420 nM,"O=C(Nc1ccc(I)c(Cl)c1)N1CCC(n2c(=O)[nH]c3cc(Cl)ccc32)CC1 [Example 17, 4-(5-Chloro-2-oxo-2,3-dihydro-1H-1,3-benzodiazol-1-yl)-N-(3-chloro-4-iodophenyl)piperidine-1-carboxamide]"
21,8890 nM,"COc1ccc(NC(=O)N2CCC(n3c(=O)[nH]c4c(C)ccnc43)CC2)cc1Cl [Example 180, N-(3-Chloro-4-methoxyphenyl)-4-{7-methyl-2-oxo-1H,2H,3H-imidazo[4,5-b]pyridin-3-yl}piperidine-1-carboxamide]"
22,115 nM,"COc1ncc(NC(=O)[C@H]2CC[C@@H](n3c(=O)[nH]c4c(OC)cccc43)CC2)cc1C [Example 208, Cis-4-(4-methoxy-2-oxo-2,3-dihydro-1H-1,3-benzodiazol-1-yl)-N-(6-methoxy-5-methylpyridin-3-yl)cyclohexane-1-carboxamide]"
23,467 nM,"Cc1ccc(NC(=O)[C@H]2CC[C@@H](n3c(=O)[nH]c4c(Br)cccc43)CC2)cn1 [Example 190, Cis-4-(4-bromo-2-oxo-2,3-dihydro-1H-1,3-benzodiazol-1-yl)-N-(6-methylpyridin-3-yl)cyclohexane-1-carboxamide]"
24,3660 nM,"NC(=O)c1ccc(NC(=O)[C@H]2CC[C@@H](n3c(=O)[nH]c4c(Br)cccc43)CC2)cc1 [Example 224, 4-[cis-4-(4-bromo-2-oxo-2,3-dihydro-1H-1,3-benzodiazol-1-yl)cyclohexaneamido]benzamide]"
25,221 nM,"COc1cc(NC(=O)[C@H]2CC[C@@H](n3c(=O)[nH]c4c(C(=O)N5CCCC5C(N)=O)cccc43)CC2)ccc1C (stereo partly drawn) [Example 278, 1-{2-Oxo-1-[cis-4-[(3-methoxy-4-methylphenyl)carbamoyl]cyclohexyl]-2,3-dihydro-1H-1,3-benzodiazole-4-carbonyl}pyrrolidine-2-carboxamide]"
26,1750 nM,"COc1ccc(NC(=O)N2CCC(n3c(=O)[nH]c4c(N(C)CCN(C)C)cccc43)CC2)cc1Cl [Example 106, N-(3-chloro-4-methoxyphenyl)-4-(4-{[2-(dimethylamino)ethyl](methyl)amino}-2-oxo-2,3-dihydro-1H-1,3-benzodiazol-1-yl)piperidine-1-carboxamide]"
27,73.6 nM,"COc1ccc(NC(=O)[C@H]2CC[C@@H](n3c(=O)[nH]c4c(OC)cccc43)CC2)cc1F [Example 207, Cis-N-(3-fluoro-4-methoxyphenyl)-4-(4-methoxy-2-oxo-2,3-dihydro-1H-1,3-benzodiazol-1-yl)cyclohexane-1-carboxamide]"
28,759 nM,"CC(=O)Nc1cccc2c1[nH]c(=O)n2[C@H]1CC[C@@H](C(=O)Nc2ccc3[nH]ncc3c2)CC1 [Example 315, Cis-4-(4-acetamido-2-oxo-2,3-dihydro-1H-1,3-benzodiazol-1-yl)-N-(1H-indazol-5-yl)cyclohexane-1-carboxamide]"
29,350 nM,"Cc1ccc(NC(=O)[C@H]2CC[C@@H](n3c(=O)[nH]c4c(Br)cccc43)CC2)c(O)c1 [Example 222, Cis-4-(4-bromo-2-oxo-2,3-dihydro-1H-1,3-benzodiazol-1-yl)-N-(2-hydroxy-4-methylphenyl)cyclohexane-1-carboxamide]"

row,SMILES,IC50
1,"N#Cc1ccc(NC(=O)[C@H]2CC[C@@H](n3c(=O)[nH]c4c(Br)cccc43)CC2)cc1Cl [Example 125, (Cis)-4-(4-bromo-2-oxo-2,3-dihydro-1H-1,3-benzodiazol-1-yl)-N-(3-chloro-4-cyanophenyl)cyclohexane-1-carboxamide]",3620 nM
2,"COc1cc(NC(=O)[C@H]2CC[C@@H](n3c(=O)[nH]c4c(OCCC(C)C)cccc43)CC2)ccc1C [Example 325, Cis-N-(3-methoxy-4-methylphenyl)-4-[4-(3-methylbutoxy)-2-oxo-2,3-dihydro-1H-1,3-benzodiazol-1-yl]cyclohexane-1-carboxamide]",314 nM
